Results: patent US8247351B2, “Insecticidal compositions having improved effect” (Bayer Cropscience AG, priority 2005, dated 2012)

Legend:
Assay type in all cases: in vivo
[1] = tested on: Myzus persicae; experiment: Myzus persicae test, Example F (sprayed to runoff, ammonium salt plus penetrant)
Description: (§1) Solvent: 7 parts by weight dimethylformamide
(§2) Emulsifier: 2 parts by weight alkylaryl polyglycol ether
An appropriate preparation of active ingredient is prepared by mixing 1 part by weight of active ingredient with the stated amounts of solvent and emulsifier and diluting the concentrate with water to the desired concentration. For the application with ammonium salts or phosphonium salts and penetrant (rapeseed oil methyl ester 500 EW), they are each added in a concentration of 1000 ppm to the spray liquor.
After the desired time the destruction in % is ascertained. 100% means that all of the animals have been killed; 0% means that no animals have been killed.

[2] = tested on: Aphis gossypii; experiment: Aphis gossypii test, Example E (sprayed to runoff, ammonium salt boosting)
Description: as §1, §2
(§3) An appropriate preparation of active ingredient is prepared by mixing 1 part by weight of active ingredient with the stated amounts of solvent and emulsifier and diluting the concentrate with emulsifier-containing water to the desired concentration. For the application with ammonium salts or phosphonium salts, these salts are added in a concentration of 1000 ppm to the spray liquor.
(§4) Cotton plants (Gossypium hirsutum) heavily infested by the cotton aphid (Aphis gossypii) are sprayed to runoff with the preparation of active ingredient at the desired concentration.
(§5) After the desired time the destruction in % is ascertained. 100% means that all of the aphids have been killed; 0% means than no aphids were killed.

[3] = tested on: Myzus persicae; experiment: Myzus persicae test, Example D (sprayed to runoff, ammonium salt boosting)
Description: as §1, §2
as §3, with “with” for “with emulsifier-containing”
Paprika plants (Capsicum annum) heavily infested by the green peach aphid (Myzus persicae) are treated by being. sprayed to runoff with the preparation of active ingredient at the desired concentration. After the desired time the destruction in % is ascertained. 100% means that all of the animals have been killed; 0% means that no animals have been killed.

[4] = tested on: Aphis gossypii; experiment: Aphis gossypii test, Example G (sprayed to runoff, ammonium salt plus penetrant)
Description: as §1, §2
An appropriate preparation of active ingredient is prepared by mixing 1 part by weight of active ingredient with the stated amounts of solvent and emulsifier and diluting the concentrate with emulsifier-containing water to the desired concentration. For the application with ammonium salts or phosphonium salts and penetrants (rapeseed oil methyl esters 500 EW), they are each added in a concentration of 1000 ppm a.i. to the spray liquor.
as §4, §5

[5] = 0.8 ppm active ingredient, +AS (1000 ppm)
[6] = 0.8 ppm active ingredient, no additive
[7] = 4 ppm active ingredient, +AS (1000 ppm)
[8] = 4 ppm active ingredient, no additive
[9] = 4 ppm active ingredient, +RME (1000 ppm)
[10] = 4 ppm active ingredient, +RME +AS (each 1000 ppm)
[11] = 20 ppm active ingredient, +AS (1000 ppm)
[12] = 20 ppm active ingredient, no additive
[13] = 100 ppm active ingredient, +AS (1000 ppm)
[14] = 100 ppm active ingredient, +RME (1000 ppm)
[15] = 100 ppm active ingredient, +RME +AS (each 1000 ppm)
[16] = 100 ppm active ingredient, no additive
[17] = 20 ppm active ingredient, +RME (1000 ppm)
[18] = 20 ppm active ingredient, +RME +AS (each 1000 ppm)

COC1CCC2(CC1)OC(=O)C(c1c(C)cc(C)cc1C)=C2O (stereo not shown) [Example I-2-a-1]
Degree of destruction/% after 6 days [1, 5]: 65%
Degree of destruction/% after 6 days ([1]; 0.8 ppm active ingredient, +RME (1000 ppm)): 95%
Degree of destruction/% after 6 days ([1]; 0.8 ppm active ingredient, +RME +AS (each 1000 ppm)): 100%
Degree of destruction/% after 6 days [1, 6]: 20%
Degree of destruction/% after 6 days [2, 5]: 85%
Degree of destruction/% after 6 days [2, 6]: 0%
Degree of destruction/% after 6 days [2, 7]: 95%
Degree of destruction/% after 6 days [2, 8]: 80%
Degree of destruction/% after 6 days [3, 5]: 65%
Degree of destruction/% after 6 days [3, 6]: 20%
Degree of destruction/% after 6 days [3, 7]: 98%
Degree of destruction/% after 6 days [3, 8]: 90%

Cc1ccccc1-c1c(O)c(C)c(-c2ccccn2)oc1=O [Example I-4-a-2]
Degree of destruction/% after 6 days [4, 7]: 60%
Degree of destruction/% after 6 days [4, 9]: 0%
Degree of destruction/% after 6 days [4, 10]: 65%
Degree of destruction/% after 6 days [4, 8]: 5%
Degree of destruction/% after 6 days [2, 7]: 60%
Degree of destruction/% after 6 days [2, 8]: 50%

COc1cc(C)cc(C)c1-c1c(O)sc(-c2ccc(F)cc2)nc1=O [Example I-5-a-1]
Degree of destruction/% after 6 days [1, 7]: 5%
Degree of destruction/% after 6 days [1, 9]: 55%
Degree of destruction/% after 6 days [1, 10]: 95%
Degree of destruction/% after 6 days [1, 8]: 0%
Degree of destruction/% after 6 days [3, 11]: 55%
Degree of destruction/% after 6 days [3, 12]: 0%

Cc1cc(C)c(C2=C(O)C3(CCCCC3)CC2=O)c(C)c1 [Example I-6-a-1]
Degree of destruction/% after 6 days [4, 13]: 40%
Degree of destruction/% after 6 days [4, 14]: 60%
Degree of destruction/% after 6 days [4, 15]: 80%
Degree of destruction/% after 6 days [4, 16]: 40%

COC1CCCC2(CC(O)=C(c3c(C)cc(C)cc3C)C2=O)C1 (stereo not shown) [Example I-6-a-2]
Degree of destruction/% after 6 days [4, 13]: 30%
Degree of destruction/% after 6 days [4, 14]: 15%
Degree of destruction/% after 6 days [4, 15]: 40%
Degree of destruction/% after 6 days [4, 16]: 0%

O=C1C(c2cc(-c3ccc(Cl)cc3)ccc2Cl)C(=O)N2CCCCN12 [Example I-8-a-1]
Degree of destruction/% after 6 days [1, 13]: 30%
Degree of destruction/% after 6 days [1, 14]: 30%
Degree of destruction/% after 6 days [1, 15]: 45%
Degree of destruction/% after 6 days [1, 16]: 15%
Degree of destruction/% after 6 days [4, 13]: 15%
Degree of destruction/% after 6 days [4, 14]: 15%
Degree of destruction/% after 6 days [4, 15]: 40%
Degree of destruction/% after 6 days [4, 16]: 0%

O=C1C(c2cc(-c3ccc(Cl)cc3)ccc2Cl)C(=O)N2CCOCCN12 [Example I-8-a-2]
Degree of destruction/% after 6 days [1, 13]: 15%
Degree of destruction/% after 6 days [1, 14]: 15%
Degree of destruction/% after 6 days [1, 15]: 55%
Degree of destruction/% after 6 days [1, 16]: 0%

Cc1ccc(-c2ccc(Cl)cc2)c(C)c1C1C(=O)N2CCOCCN2C1=O [Example I-8-a-3]
Degree of destruction/% after 6 days [4, 11]: 50%
Degree of destruction/% after 6 days [4, 17]: 50%
Degree of destruction/% after 6 days [4, 18]: 90%
Degree of destruction/% after 6 days [4, 12]: 15%

Cc1cc(C)c(C2C(=O)N3CCOCCN3C2=O)c(C)c1-c1ccc(Cl)cc1 [Example I-8-a-4]
Degree of destruction/% after 6 days ([4]; 90 ppm active ingredient, +AS (1000 ppm)): 35%
Degree of destruction/% after 6 days ([4]; 90 ppm active ingredient, +RME (1000 ppm)): 30%
Degree of destruction/% after 6 days ([4]; 90 ppm active ingredient, +RME +AS (each 1000 ppm)): 75%
Degree of destruction/% after 6 days ([4]; 90 ppm active ingredient, no additive): 30%

Cc1ccc(-c2ccc(Cl)cc2)cc1C1=C(O)C(C)(C)C(C)(C)NC1=O [Example I-9-a-1]
Degree of destruction/% after 6 days [1, 13]: 0%
Degree of destruction/% after 6 days [1, 14]: 5%
Degree of destruction/% after 6 days [1, 15]: 50%
Degree of destruction/% after 6 days [1, 16]: 15%

Cc1ccc(-c2ccc(Cl)cc2)cc1C1=C(O)C2(C)CCCCC2OC1=O (stereo not shown) [Example I-10-a-2]
Degree of destruction/% after 6 days [1, 11]: 10%
Degree of destruction/% after 6 days [1, 17]: 0%
Degree of destruction/% after 6 days [1, 18]: 65%
Degree of destruction/% after 6 days [1, 12]: 5%
Degree of destruction/% after 6 days [2, 7]: 50%
Degree of destruction/% after 6 days [2, 8]: 0%
Degree of destruction/% after 6 days [2, 11]: 80%
Degree of destruction/% after 6 days [2, 12]: 10%
